According to patent publication US8252832B2, “Kinesin inhibitors as cancer therapeutics” (Novartis AG, priority 2007, dated 2012):
Where two headings read alike, the source gives them in different places.

Experiments:
[1] = system: T47-D; test: Caspase-Glo 3/7 assay; type: cell-based; settings: Homo sapiens, T47D
Source text: Identification of tumor types that are the most sensitive to the KSP inhibitors of the present invention can be accomplished using an unbiased approach that uses several cell-based assays. The assays chosen were as follows: • CellTiter-Glo®. This is an assay designed to measure ATP concentration in a cell culture, and can be correlated to cell number. Briefly CellTiter-Glo® (Promega Corporation) is a homogeneous method using the single CellTiter-Glo® reagent to detect ATP wherein ATP in the assay drives the activity of a thermostable luciferase to create a luminescent signal which can then be measured and correlated with the number of viable cells. Briefly, for adherent cells, 1,000 to 5,000 cells/well were plated in 96-well plates (100 μl/well) and let to adhere for 24 hours before being treated with drug. For non-adherent cells, 1,000 to 10,000 cells/well were plated in 96-well plates (100 μl/well) and immediately treated with drug. Drug dilutions were prepared in DMSO at 1000 times the final concentration. These dilutions were then diluted 1/100 in growth media before being added to the cells (11 μl/well) to achieve the desired final concentration. After 48 h in a 37° C. tissue culture incubator, the plates were processed for the CellTiter-Glo®assay according to the manufacturer's instructions. Protocol for a 72 hour cell proliferation assay: The 72 hour assay was performed the same way as the 48 hour assay except for the following modifications: For adherent cells, 500 to 5,000 cells/well were plated in 96-well plates (90 μl/well cell growth media) and left to adhere for 24 hours before being treated with drug. For non-adherent cells, 1,000 to 10,000 cells/well were plated in 96-well plates (90 μl/well cell growth media) and immediately treated with drug. Data values presented represent the concentration of test compound required for a 50% reduction in growth. • LDH release. The Cytotoxicity Detection KitPLUS (LDH) assay (Roche Diagnostics, Manheim, Germany) measures the amount of LDH released in the media by dying cells; LDH catalyzes the conversion of lactate into pyruvate. The enzymatic reaction is coupled to a chemical reaction that uses a tetrazolium salt to form a formazan that is red and can be detected by its absorbance at 490 nm. This assay measures the amount of cell death after drug treatment. Cells were plated at 10,000 cells/well in 96-well plates (100 μl/well). Adherent cells were let to adhere for 24 hours before being treated with drug, whereas non-adherent cells were immediately treated with drug. Drug dilutions were prepared in DMSO at 1000 times the final concentration. These dilutions were then diluted 1/100 in growth media before being added to the cells (11 μl/well) to achieve the desired final concentration. After 48 h in a 37° C. tissue culture incubator, the plates were processed for the Cytotoxicity Detection KitPLUS (LDH) assay according to the manufacturer's instructions. The media only values were subtracted from all the data points before analysis. Data values presented correspond to the compound concentration wherein LDH output is at half maximal level. • Caspase-Glo® 3/7. The Caspase-Glo® 3/7 Assay (Promega Corporation) is a homogeneous luminescent assay that measures caspase-3/7 activities. The assay provides a proluminescent caspase-3/7 DEVD-aminoluciferin substrate and a thermostable luciferase in a reagent optimized for caspase-3/7 activity, luciferase activity and cell lysis. Adding the single Caspase-Glo® 3/7 Reagent results in cell lysis, followed by caspase cleavage of the substrate. This liberates free aminoluciferin, which is consumed by the luciferase, generating a luminescent signal. The signal is proportional to caspase-3/7 activity. Data values presented correspond to the compound concentration wherein caspase 3/7 activity is at half maximal level.

[2] = system: cell lines derived from hematological malignancies; test: CellTiter-Glo, hematologic malignancy panel, mean of panel; type: cell-based
Source text: Identification of tumor types that are the most sensitive to the KSP inhibitors of the present invention can be accomplished using an unbiased approach that uses several cell-based assays. The assays chosen were as follows: • CellTiter-Glo®. This is an assay designed to measure ATP concentration in a cell culture, and can be correlated to cell number. Briefly CellTiter-Glo® (Promega Corporation) is a homogeneous method using the single CellTiter-Glo® reagent to detect ATP wherein ATP in the assay drives the activity of a thermostable luciferase to create a luminescent signal which can then be measured and correlated with the number of viable cells. Briefly, for adherent cells, 1,000 to 5,000 cells/well were plated in 96-well plates (100 μl/well) and let to adhere for 24 hours before being treated with drug. For non-adherent cells, 1,000 to 10,000 cells/well were plated in 96-well plates (100 μl/well) and immediately treated with drug. Drug dilutions were prepared in DMSO at 1000 times the final concentration. These dilutions were then diluted 1/100 in growth media before being added to the cells (11 μl/well) to achieve the desired final concentration. […] The enzymatic reaction is coupled to a chemical reaction that uses a tetrazolium salt to form a formazan that is red and can be detected by its absorbance at 490 nm. […]

`CC(C)(C)[C@H](c1nc(-c2cc(F)ccc2F)cn1Cc1ccccc1)N(CC[C@H](N)CF)C(=O)CO` [Compound IIa] was tested, and the EC50 ([1]; 48 h) was 0.39 nM, the EC50 ([1]; 72 h) was 0.4 nM and the GI50 ([2]; GI50 in nM, read-out: Log(GI50), arithmetic mean of panel (converted)) was 0.339 nM. It also gave a GI50 ([2]; read-out: GI50, geometric mean of panel) of 0.34 nM.
